Each block holds one molecule with its values, some of them ahead of it.
Assays:
[1] = Nail penetration study with Terbinafine (example 1a); type: in vitro ADME; conditions: reference solution: 10% (w/v) Terbinafine in 60% (v/v) ethanol/water, no hydrophobin; average of 3
Procedure: Healthy nails for the permeability experiments were obtained from the Institute of Anatomy of the University of Basel and from the Institute of Anatomy of the University of Freiburg, Germany. Franz Diffusion Cells (SES GmbH—Analysesysteme, Bechenheim, Germany) with a diffusion area of 0.785 cm^2 were used. […] Subsequently, they were mounted in the diffusion cells in an appropriate manner. The acceptor chamber below the nail was filled with 5 ml PBS. The formulation (400 μl) was applied onto the nail. In order to keep the temperature in the system constant, the glass cells were tempered by a water jacket kept at 32°. The acceptor chambers were stirred with a magnetic stirrer at 400 rpm. The openings for the formulations and the extensions for taking samples were covered with Parafilm (film comprising paraffin wax and polyethene; American National Can Company, USA). A sample of 400 μl was taken from each cell twice a day and replaced with the same amount of PBS warmed to 32° C. […] The concentrations of the samples were measured with UV-spectrophotometry. Flux and permeation coefficients were calculated with the values after 48 hours, as in this time a steady state was obtained. […]

[2] = test system: cells in the skin model (EST-1000); type: cell-based; conditions: human, 48 h, 1 %
Procedure: Cytotoxicity of the test samples on the skin culture was determined by MTT-assay according to the instructions of the skin model provider. The viability of the cells in the skin model was not influenced by the solvents (50% ethanol, 0.002% SDS) as compared to cultures treated with PBS only. A viability of about 50% of that of the control cultures was observed when 1% caffeine or 1% caffeine/10 μg hydrophobin (SC3 or HFB II, respectively) were applied on the skin culture, showing that hydrophobin itself was not cytotoxic at a concentration of 200 μg/ml. The barrier function of the skin model is probably not influenced profoundly by the reduced viability of the cells, since the upper layer keratinocytes comprises non living cells.

[3] = type: in vitro ADME
From the text: A formulation with one enhancer, Trichoderma reesei hydrophobin HFBII (isolation see […]., Aro, […]. and […]. 1997, Differential expression of the vegetative and spore-bound hydrophobins of Tricoderma reesei, Cloning and characterization of the hfb2 gene. Eur. J. […] As ethanol is a potential solvent for substances poorly soluble in water and prevents from microbiological growth, a better or a similar permeability is desirable. […] With this caffeine-concentration the solution was nearly saturated. This was intended to achieve a faster steady state according to the highest concentration gradient possible. Phosphate buffered saline (PBS) was prepared with a pH of 7.4. Both pH and osmolality of PBS simulated in the Franz diffusion cell's acceptor chamber the physiological conditions of blood (a systemic buffer system). The water used for the formulations and PBS was freshly produced, double distilled and filtered. Healthy nails for the permeability experiments were obtained from the Institute of Anatomy of the University of Basel and from the Institute of Anatomy of the University of Freiburg, Germany. […] The concentrations of the samples were measured with UV-spectrophotometry. Flux and permeation coefficients were calculated with the values after 48 hours, as in this time a steady state was obtained.

[4] = type: in vitro ADME, human
Procedure: The penetration of caffeine through the skin was measured using a human epidermal skin model (EST-1000, Cell Systems, St. Katharinen, Germany). The in vitro model for human skin consists of a robust multilayer three-dimensional cell culture, which has been grown for 14 days and has skin-like properties. The cellular structure of EST-1000 resembles that of the natural epidermis showing a base membrane, proliferating keratinocytes and stratum corneum with an intact barrier function. The tissues were provided in cell culture inserts with a polycarbonate membrane with 0.63 cm^2 surface area and 0.4 μm pore size. The membranes were covered completely by the cells and show a matte white, dry surface after complete differentiation. The inserts were handled easily by the use of a sterile forceps. Upon delivery, the skin inserts were equilibrated by placing each insert into a well of a 6-well cell culture dish containing 1 ml of maintenance medium (provided by Cell Systems). After 4-12 hours of equilibration the test substance was applied on the dry surface of the skin model. Penetration of substances applied onto the surface of the skin culture through the skin model was measured by sampling the medium surrounding the insert and detecting the concentration of the test substance, here caffeine. […] Caffeine was purchased from Sigma and applied in a concentration of 10 mg/ml (1% w/v). […]

Cumulated amount of Terbinafine penetrated through nail after 10 days [1]: ~12 mg/cm2
Molecule: CN(C/C=C/C#CC(C)(C)C)Cc1cccc2ccccc12 [Terbinafine]

Enhancement factor (EF) in 20% (v/v) EtOH/water [3]: 3.25
Molecule: C[S+](C)[O-] [DMSO, dimethylsulfoxide]

The remaining lines, values behind:

Molecule: Cn1c(=O)c2c(ncn2C)n(C)c1=O [caffeine]
Viability relative to control cultures (MTT) [2]: about 50%

B1: SC3: class I hydrophobin of 112 amino acids from Schizophyllum commune, accession P16933 (protein, UniProt P16933 25-136, looked up)
Class I hydrophobin SC3: GGHPGTTTPPVTTTVTVTTPPSTTTIAAGGTCTTGSLSCCNQVQSASSSPVTALLGLLGIVLSDLNVLVGISCSPLTVIGVGGSGCSAQTVCCENTQFNGLINIGCTPINIL
Enhancement of penetration of caffeine (1% w/v) through in vitro model of human skin [4]: up to 21.5%
